From US8148355B2, “Phophylactic and therapeutic use of hydroxysteroids” (Hunter-Fleming Limited, priority 2001, dated 2012)
“And” between values parts separate entries of the source, which are not always exact repeats. Identical values can stand only once.

Columns and labels:
[1] = system: Organotypic hippocampal slice cultures (CA1 cell layer); assay: Hypoxic neuronal damage in organotypic hippocampal slice cultures (PI fluorescence in CA1); format: cell-based, Wistar rat; details: for effect on hypoxic damage in CA1 (in words): pre-
Experimental: Protocol For Studying Hypoxic Neuronal Damage
Organotypic hippocampal slice cultures were prepared using the basic method of Pringle et al (1996, 1997) modified as follows:
Wistar rat pups (8-11 days old) were decapitated and the hippocampus rapidly dissected into ice-cold Gey's balanced salt solution supplemented with 4.5 mg/ml glucose. Slices were separated and plated onto Millicell CM culture inserts (4 per well) and maintained at 37° C./5% CO2 for 14 days. Maintenance medium consisted of 25% heat-inactivated horse serum, 25% Hank's balanced salt solution (HBSS) and 50% minimum essential medium with added Earle's salts (MEM) supplemented with 1 mM glutamine and 4.5 mg/ml glucose. Medium was changed every 3-4 days.
Experimental hypoxia was performed as described previously (Pringle et al., 1996; 1997). Briefly, cultures were transferred to serum free medium (SFM-75% MEM, 25% HBSS supplemented with 1 mM glutamine and 4.5 mg/ml glucose) containing 5 μg/ml of the fluorescent exclusion dye propidium iodide (PI). Cultures were allowed to equilibrate in SFM for 60 minutes prior to imaging. PI fluorescence was detected using a Leica inverted microscope fitted with a rhodamine filter set. Any cultures in which PI fluorescence was detected at this stage were excluded from further study. Hypoxia was induced by transferring cultures to SFM (+PI) which had been saturated with 95% N2/5% CO2. Culture plates (without lids) were then sealed into an airtight chamber in which the atmosphere was saturated with 95% N2/5% CO2 by continuously blowing through gas at 10 liters/minute for ten minutes before being sealed and placed in the incubator for 170 minutes (total time of hypoxia was therefore 180 minutes). At the end of the hypoxic period cultures were returned to normoxic SFM containing PI and placed back in the incubator for 24 hours.
Neuronal damage was assessed as described previously (Pringle et al., 1996; 1997) using either NIH Image 1.60 running on an Apple IIsi computer or OpenLab 2.1 (Improvision) running on a Macintosh G4/400. Images were captured using a monochrome camera and saved onto optical disk for offline analysis. Light transmission images were captured prior to the addition of drugs, and PI fluorescence images recorded at the end of the 24-hour post-hypoxia recovery period. The area of the CA1 cell layer was determined from the transmission image. The area of PI fluorescence in CA1 was measured using the density slice function within NIH Image or OpenLab, and neuronal damage expressed as the percentage of the CA1 in which PI fluorescence was detected above background.
Steroid compounds were prepared by making an initial 1 mg/ml solution in ethanol and further diluting down in SFM. Compounds were added to the cultures for 45 minutes prior to hypoxia, during the hypoxic episode and during the post-hypoxic recovery period. Control experiments consisted of cultures treated with vehicle alone.

[2] = system: hippocampal CA1 pyramidal cells; assay: Global cerebral ischaemia in rats, 4 vessel occlusion (intact CA1 neurons, Nissl staining); format: in vivo, male Wistar rats
Experimental: Cerebral ischaemia was induced by four-vessel-occlusion (4VO) in male Wistar rats (250-280 g). Both vertebral arteries were occluded by electrocauterization in pentobarbital anaesthesia (60 mg/kg i.p.). The animals were allowed to recover for 24 hours with free access to water but not food. The next day the carotid arteries were exposed under 2% halothane in 30% oxygen/70% nitrous oxide anaesthesia and were occluded for 10 minutes using microvascular clamps. Subsequently, both clamps were removed and both arteries were inspected for immediate reperfusion. During the operation and the following 3 hours normothermia of the animals (37.5±0.5° C.) was maintained by using a thermostatically controlled heating blanket connected to a rectal thermometer. For control, in sham-operated animals both vertebral arteries were cauterised in pentobarbital anaesthesia and both common carotid arteries were exposed but not clamped under 2% halothane in 30% oxygen/70% nitrous oxide anaesthesia the following day. The wound was treated with lidocaine gel and then sutured. The animals were kept under a heating lamp at 30° C. environmental temperature until they regained consciousness.
Seven groups of animals were investigated: • 1. (n=8) steroid compound, 7β-OH EPIA (0.1 mg/kg, i.v. via tail vein, three injections: 15 minutes prior to the induction of ischaemia, during ischaemia and 5 minutes after reperfusion); • 2. (n=8) steroid compound, 7β-OH EPIA (0.3 mg/kg, i.v. three injections as described in 1.); • 3. (n=8) steroid compound, 7β-OH EPIA (1 mg/kg, i.v., three injections as described in 1.); • 4. (n=8) NBQX (disodium salt, because more water soluble) as reference substance and positive control (TOCRIS, Germany, 30 mg/kg, i.p., three injections as described in 1.); • 5. (n=8) received vehicle (0.9% NaCl, containing 100 μl Ethanol) three injections as described in 1.); • 6. (n=8) ischaemia alone; • 7. (n=8) sham operated controls.
The substances were dissolved in 100 μl ethanol and finally diluted with 0.9% NaCl.
After a survival time of 7 days after ischaemia, all animals were perfusion fixed tanscardially with 4% paraformaldehyde. The brains were then removed carefully and postfixed in the same fixative for 2 hours. After cryoprotection in 30% sucrose, the brains were rapidly frozen in isopentane and stored at −80° C. Twenty-micrometer cryostat sections comprising the hippocampal formation were Nissl stained with toluidine blue or NeuroTrace fluorescence.
The severity of neuronal damage in the hippocampal CA1 region after ischaemia was evaluated by the number of surviving neurons using Nissl staining. The mean number of morphologically intact neurons per 400 μm length was calculated in CA1 region for each group. Cell counting was performed in 3-5 serial sections per animal and 6 times 400 μm CA1 area per section using a light microscope equipped with a 20× objective. The data were statistically analysed by paired Student's t-test. Data were presented as mean±SEM.
Morphological intact hippocampal CA1 neurons were characterised by Nissl staining (toluidine blue and NeuroTrace) with the following criteria: clear shape of a neuronal perikarya, large nucleus with a positive labelled nucleolus, a small cytoplasm zone around the nucleus with positive Nissl staining, indicating the intact rough endoplasmic reticulum with ribosomes and therefore the intact protein synthesis machinery.

[3] = system: Langendorf perfused male rat hearts; assay: Cardioprotective effect in Langendorf perfused rat hearts (regional ischaemia/reperfusion, infarct size); parameters: species or system Wistar rats; details: 100 nM in perfusate, 30 min regional ischaemia, 120 min reperfusion
Experimental: The study was designed to test the potential anti-ischaemic and cardioprotective effect of 7β-OH EPIA in Langendorf perfused male rat hearts. The end point for evaluation of protection in this model is infarct size (protection against lethal injury, cell death). The infarct size model used is based on a standardised ischaemic insult followed by reperfusion. In the current study, treatment was added ex vivo (to the perfusion solution of the isolated heart) for 30 minutes prior to infarction and continued through 30 minutes regional ischaemia (infarction) and 120 minutes of reperfusion. Based on results from pilot studies, a concentration of 100 nM was used and compared to vehicle treated hearts. The drug was dissolved in DMSO (vehicle) and the final concentration of DMSO in the perfusion solution was 1:10^−6.
Animals were housed in the animal department of the University of Tromsø and treated according to the guidelines formulated by the European Convention for the protection of vertebrate animals used for experimental or other purposes. Supply of Wistar rats were from Harland (The Netherlands), and the rats stayed in the animal department for one week before experiments were started. Animal weight was restricted to 240-380 g, and only male hearts were used. This corresponds to age 60-120 days. […]
The perfusion pressure was 100 mm H2O. […] Heart rate was calculated from pressure recordings. […]

[4] = Experiment 1, 100 nM, during and post-hypoxia
[5] = Experiment 1, 100 nM, present pre-, during and post-hypoxia, control hypoxia 25.5 ± 6.4
[6] = 30 mg/kg, three injections, 10 min global ischaemia, 7 days survival

C[C@]12CC[C@H](O)C[C@@H]1C[C@@H](O)[C@@H]1[C@@H]2CC[C@]2(C)C(=O)CC[C@@H]12 [7αOH-EPIA, 7α-Hydroxy-EPIA]
effect on hypoxic damage in CA1 (in words) [1, 4]: significantly reduced | % Damage in CA1 [1, 5]: 4.0 ± 2.9 %

C[C@]12CC[C@H](O)CC1=C[C@H](O)[C@@H]1[C@@H]2CC[C@]2(C)C(=O)CC[C@@H]12 [7βOH-DHEA, 7β-hydroxy-DHEA]
effect on neuronal damage (in words) ([1]; Experiment 3, 100 nM pre-, during and post-hypoxia): a large, highly significant, reduction in neuronal damage | % Damage in CA1 ([1]; Experiment 3, 100 nM pre-, during and post-hypoxia, control hypoxia 29.0 ± 6.2): 4.1 ± 1.9 %

C[C@]12CC[C@H](O)C[C@@H]1C[C@H](O)[C@@H]1[C@@H]2CC[C@]2(C)C(=O)CC[C@@H]12 [7βOH-EPIA, 7β-hydroxyepiandrosterone]
neuroprotective effect, t-test analysis (in words) ([2]; 0.1 mg/kg (p=0.01) and 0.3 mg/kg (p=0.0008)): highly significant neuroprotective effect | neuroprotective effect on CA1 pyramidal cells compared to the sham operated group ([2]; 0.1 mg/kg i.v., three injections, 10 min global ischaemia, 7 days survival): 74.8% | neuroprotective effect on CA1 pyramidal cells compared to the sham operated group ([2]; 0.3 mg/kg i.v., three injections, 10 min global ischaemia, 7 days survival): 83.9% | neuroprotection of CA1 pyramidal cells (in words) ([2]; 1.0 mg/kg i.v., three injections): only a tendency to neuroprotection, but the effect was not significant | behavioural abnormalities of the animals ([2]; injected i.v. prior, during and after ischaemia): never observed any behavioural abnormalities | Infarct volume ([3]; control 38.9): 14.1 | Infarct/risk zone (%) ([3]; control 46.3): 14.4+/−1.22% and 14.4% | effect on hypoxic damage in CA1 (in words) [1, 4]: significantly reduced | % Damage in CA1 [1, 5]: 9.0 ± 4.7 % | neuroprotection against hypoxia (in words) ([1]; Experiment 2, 1 nM): activity was lost | % Damage in CA1 ([1]; Experiment 2, 1 nM, control hypoxia 31.9 ± 4.7): 20.6 ± 7.2% | neuroprotection against hypoxia (in words) ([1]; Experiment 2, 10 nM and 100 nM): significantly neuroprotective | % Damage in CA1 ([1]; Experiment 2, 10 nM, control hypoxia 31.9 ± 4.7): 11.9 ± 4.7 % | % Damage in CA1 ([1]; Experiment 2, 100 nM, control hypoxia 31.9 ± 4.7): 14.3 ± 5.0 %

NS(=O)(=O)c1cccc2c1c([N+](=O)[O-])cc1nc(O)c(O)nc12 [NBQX, 2,3-dihydroxy-6-nitro-7-sulfamoyl-benzo(F)quinoxaline, reference compound]
neuroprotection in CA1 pyramidal cells compared to the ischaemia group (in words) ([2]; 30 mg/kg, three injections): significant (p=0.03) neuroprotection | neuroprotection compared to the ischaemia alone [2, 6]: 47.5% | protective effect compared to the sham operated animals [2, 6]: 68.5%
